Source: US6451356B1, “Antibacterial composition comprising oenostacin from oenothera biennis” (Council of Scientific and Industrial Research, priority 2000, dated 2002)
Converted amounts (≈) assume the structure as drawn. Where two headings read alike, the source gives them in different places.

How the values were obtained:
Assay type in all cases: cell-based
[1] = test system: Pseudomonas aeruginosa; test: MIC by two-fold broth dilution, P. aeruginosa; details: Table 5, read-out: Minimal inhibitory concentration (MIC) P. aeruginosa
Method: (§1) In order to identify the antibacterial chemical entities present in the EtOAc fraction 3 and 4 of O.biennis roots, the fractions are further run on silica gel column chromatography again eluting with varying proportions of chloroform and MeOH. Aliquots of eluate are run on TLC to check for the desired purity of the compound. The pure compounds thus obtained are analyzed for their antibacterial properties by two-fold broth dilution method to determine the minimal inhibitory concentration (MIC). […] The compounds CIM791 and 790 are identified as 3,5-dihydroxy-4-pent-4′-enoyl-1′-oxymethylbenzoic acid (Oenostacin) and gallic acid, respectively, using NMR spectral data.

[2] = test system: Streptococcus mutans; test: MIC by two-fold broth dilution, S. mutans
Method: as §1

[3] = test system: Staphylococcus epidermidis; test: MIC by two-fold broth dilution, S. epidermidis; parameters: Minimal inhibitory concentration (MIC) S. epidermidis: unit not given here
Method: CIM 791 is tested for its minimal inhibitory concentration, which is a measure of the growth inhibitory potential of the compound and determined against S. epidermidis by two-fold broth dilution technique.
as §1

| SMILES | MIC [1] | MIC ([2]; read-out: MIC against Streptococcus mutans) | activity against Staphylococcus epidermidis (in words) [3] | MIC ([3]; Staphylococcus epidermidis, read-out: MIC against Staphylococcus epidermidis) | Minimal inhibitory concentration (MIC) S. epidermidis ([3]; Table 5) | MIC ([2]; Table 5, read-out: Minimal inhibitory concentration (MIC) S. mutans) |
| --- | --- | --- | --- | --- | --- | --- |
| O=C(O)c1cc(O)c(O)c(O)c1 [Gallic acid, gallic acid] | 1250 µg/mL (≈ 7.35 mM) | 625 µg/mL (≈ 3.67 mM) |  |  |  |  |
| COC(=O)CC/C=C/c1c(O)cc(C(=O)O)cc1O [Oenostacin, 3,5-dihydroxy-4-pent-4′-enoyl-1′-oxymethylbenzoic acid] |  |  | strong activity | 31.5 µg/mL (≈ 0.118 mM) | 31.5 | 1250 µg/mL (≈ 4.69 mM) |
